Here are results for 32 molecules from article PMC12040169 (PLOS Biology, 2025).

The nature of this series: in vitro. The following applies: human, hela cells, % viability.

As usually defined, the viability is a read-out of living cells in per cent, often relative to untreated cells. As for `CCCCc1noc(CN2CCCC2C(=O)NCc2ccco2)n1` (centres unmarked) [CBK304036], the viability at 28.5 h, 10 µM amounted to 88%.

On to `COc1ccc(Cc2c(C)nc3c(C(=O)NCC4COc5ccccc5O4)cnn3c2C)cc1` (centres unmarked) [CBK162179], for which the viability at 28.5 h, 10 µM stood at 102%.

With `COC(=O)[C@@H](C)NC(=O)[C@@H]1CN(C(=O)NC(C)C)CCN1C(=O)c1cccs1` [CBK289624], the viability at 28.5 h, 10 µM is 110%.

For `CCN(CC)CCNC(=O)c1c(O)c2ccccc2n(Cc2ccccc2)c1=O` [CBK291199], the viability at 28.5 h, 10 µM worked out at 113%.

Consider `CCn1ncnc1CN(C)Cc1ccc2c(c1)CN(C)C2` [CBK306530], for which the viability at 28.5 h, 10 µM was determined as 86.1%.

As for `Cc1cccn2cc(COC(=O)c3ccc(F)cc3N)nc12` [CBK298310], the viability at 28.5 h, 10 µM came to 54.1%.

Regarding `O=S(=O)(c1cccs1)N1CCC2(CC1)OCCO2` [CBK057295], the viability at 28.5 h, 10 µM was found to be 95.1%.

With `Cn1c(-c2ccccc2)cnc1NC(=O)C1CN(S(=O)(=O)c2ccc(F)cc2)C1` [CBK285945], the viability at 28.5 h, 10 µM was 98.4%.

Take `Cc1nn(-c2ccccn2)c(C)c1[C@@H]1C=C[C@@H](NS(C)(=O)=O)C1` [CBK289169]: the viability at 28.5 h, 10 µM is 86.8%.

Turning to `O=c1c(-c2cc(O)[nH]n2)c(O)c2ccccc2n1Cc1ccccc1` [CBK291160], the viability at 28.5 h, 10 µM was found to be 97.2%.

For the molecule `O=C(CSc1ccccc1)NCc1ccncc1` [CBK058023], the viability at 28.5 h, 10 µM came to 96.7%.

As to `NC(=O)c1ccc(NC(=O)N2CCN(CCc3ccccc3)CC2)cc1` [CBK158924], the viability at 28.5 h, 10 µM was found to be 95.3%.

Take `O=C(c1ccccc1F)N1CCCC1Cn1c(=O)oc2ccccc21` (centres unmarked) [CBK282926]: the viability at 28.5 h, 10 µM was found to be 97.5%.

Turning to `COc1ccccc1OCC(=O)N1CCN(C(=O)c2ccco2)CC1` [CBK144466], the viability at 28.5 h, 10 µM came to 86.8%.

With `COc1ccc(CCN2CCCN(c3nccc(OCc4ccc(Cl)c(Cl)c4)n3)CC2)cc1OC` [CBK083965], the viability at 28.5 h, 10 µM was 96.4%.

`O=S(=O)(N[C@H]1CO[C@H]2[C@@H]1OC[C@H]2O)c1ccc(Cl)cc1` [CBK289478]: the viability at 28.5 h, 10 µM was 87.7%.

For `O=C(CC(C(=O)O)P(=O)(c1ccccc1)c1ccccc1)c1ccccc1` (centres unmarked) [CBK264971], the viability at 28.5 h, 10 µM was found to be 114%.

In the case of `CN(C)c1ccc(-c2nccnc2NS(=O)(=O)c2ccccc2C(F)(F)F)cc1` [CBK050801], the viability at 28.5 h, 10 µM was found to be 92.8%.

On to `Cc1ccc(S(=O)(=O)NNC(=O)COc2cccc3cccnc23)cc1` [CBK268788], for which the viability at 28.5 h, 10 µM is 90.1%.

`CC(C)Cn1ncc2cc(C(=O)Nc3cccnc3N(C)C)cnc21` [CBK304891]: the viability at 28.5 h, 10 µM worked out at 87.1%.

Turning to `O=C(Nc1ccccc1)OC1CCCCC1` [CBK015569], the viability at 28.5 h, 10 µM came to 116%.

`O=C(O)CCC(C(=O)O)N1C(=O)c2c(Cl)c(Cl)c(Cl)c(Cl)c2C1=O` (centres unmarked) [CBK264308]: the viability at 28.5 h, 10 µM came to 102%.

With `O=c1sn(-c2ccccc2C(F)(F)F)c(=O)n1CC1CC1` [CBK113675], the viability at 28.5 h, 10 µM worked out at 82.8%.

Take `CCNC(=O)Nc1ncc(-c2ccccc2)c2cccnc12` [CBK070624]: the viability at 28.5 h, 10 µM turned out to be 95.3%.

As to `O=C(CCN1CCN(CCO)CC1)Nc1ccc(Cl)cc1` [CBK033787], the viability at 28.5 h, 10 µM stood at 101%.

For `COc1ccccc1OCC(=O)N1CCC2(CCNC2)C1` (centres unmarked) [CBK156703C], the viability at 28.5 h, 10 µM was 99.6%.

`CCOC(=O)c1ccnc(-c2cc3ccccc3o2)c1` [CBK149253]: the viability at 28.5 h, 10 µM amounted to 101%.

In the case of `COc1ccc(CC(=O)N2CCCC(c3nc(C)c4c(n3)N(CC3CC3)CCC4)C2)cc1` (centres unmarked) [CBK286228], the viability at 28.5 h, 10 µM was 100%.

Turning to `CCCc1cc(C(=O)Nc2nccs2)cs1` [CBK288212], the viability at 28.5 h, 10 µM came out at 83.9%.

As for `O=C(O)CCc1ccc(S(=O)(=O)Nc2ccc(N3CCCC3=O)cc2)cc1` [CBK295647], the viability at 28.5 h, 10 µM was 106%.

For the molecule `CC(C)CC(=O)NCCn1nc(-c2ccccc2F)cc1CN(C)C` [CBK282005], the viability at 28.5 h, 10 µM stood at 97.4%.

On to `O=C(CSc1nnc(-c2ccc(Cl)cc2Cl)[nH]1)Nc1ccc(F)cc1` [CBK267651], for which the viability at 28.5 h, 10 µM came out at 96.4%.
